Results: US12357642B2, “Hazardous agent injection system” (Antares Pharma, Inc., priority 2009, dated 2025)
Values joined by “and” are separate entries in the source; they are usually repeats but may differ in a detail not shown here. Equal entries are not always repeated. “Also recorded” adds a separate entry of the source. Where two headings read alike, the source gives them in different places.

Columns and labels:
[1] = cited from earlier work; for average mean serum concentration: pediatric patients with juvenile rheumatoid arthritis
[2] = oral, 5 mg/m^2 per week increased to 10 mg/m^2 per week, 46 patients; cited from earlier work
[3] = cited from earlier work
[4] = cited from earlier work; remark: listed apart in the source
[5] = 15 mg, 10 rheumatoid arthritis patients, cited from earlier work
[6] = test system: patients with active rheumatoid arthritis; details: cited from earlier work; for median Disease Activity Score (DAS28) / number of swollen joints / number of tender joints / patients with an ACR20 response: 24 weeks; for patients achieving ACR20: starting dose 15 mg per week; for median Health Assessment Questionnaire (HAQ) score / patients achieving an ACR70 response: week 24; for time to achieve an ACR20 response: same subgroup (n=98); for ACR20 responders: subgroup >1 year between diagnosis and study entry with prior antirheumatic compounds or steroids (n=98)
[7] = test system: patients with rheumatoid arthritis; details: cited from earlier work
[8] = test system: rheumatoid arthritis patients; details: cited from earlier work
[9] = Pharmacokinetics of methotrexate in minipig plasma after subcutaneous injection with autoinjector or needle/syringe
[10] = Female, Auto injector, SC, Dose Level 12.5, individual animals
[11] = Female, Syringe, SC, Dose Level 12.5, individual animals
[12] = Male, Auto injector, SC, Dose Level 12.5, individual animals
[13] = Male, Syringe, SC, Dose Level 12.5, individual animals

CN(Cc1cnc2nc(N)nc(N)c2n1)c1ccc(C(=O)N[C@@H](CCC(=O)O)C(=O)O)cc1 [Methotrexate, L-(+)—N-[p-[[(2,4-Diamino-6-pteridinyl)methyl]methylamino]-benzoyl]glutamic acid]
initial average distribution volume ([1]; after intravenous administration): about 0.18 L/kg
absorption from parenteral routes of injection ([1]; human, in vivo): completely absorbed
average mean serum concentration ([1]; at about 1 hour): about 0.59 μM
average mean serum concentration ([1]; at about 3 hours): about 0.29 μM
effect of higher doses [2]: dose-related efficacy response together with a trend toward increased toxicity
average DAS28 ([3]; after switch from oral to intramuscular administration at 15 mg per week): 5.2
average DAS28 ([3]; before switch from oral to intramuscular administration at 15 mg per week): 5.6
disease improvement compared to placebo ([3]; intramuscular dosage escalated 15 to 45 mg per week, 54 patients who did not achieve DAS28<3.2): no difference in disease improvement
peak serum concentrations and bioavailability, intramuscular versus subcutaneous ([4]; 12.5 mg to 25 mg per week): similar
Tmax after subcutaneous versus intramuscular administration ([4]; in 4 out of 5 patients tested): faster
oral bioavailability ([5]; fasting): 67%
oral bioavailability ([5]; fed): 63%
patients classified as ACR20 non-responders ([6]; 16 weeks, of the total tested (52 patients)): 14%
median Disease Activity Score (DAS28) ([6]; oral): 3.7
number of swollen joints ([6]; oral): 3
number of tender joints ([6]; oral): 6
patients with an ACR20 response ([6]; oral): 70%
patients achieving ACR20 ([6]; oral, 16 weeks): 77%
median Health Assessment Questionnaire (HAQ) score ([6]; oral): 0.5
patients achieving an ACR70 response ([6]; oral): 33%
time to achieve an ACR20 response ([6]; oral): 6 weeks
ACR20 responders ([6]; oral): 63%
rate of adverse events, subcutaneous versus oral ([6]; same dose): not accompanied by a significantly higher rate of adverse events
further non-responders with positive ACR20 response after dose increase ([6]; subcutaneous dosage increased from 15 mg to 20 mg): 23%
median Disease Activity Score (DAS28) ([6]; subcutaneous): 3.3
number of swollen joints ([6]; subcutaneous): 2
number of tender joints ([6]; subcutaneous): 3.5
patients with an ACR20 response ([6]; subcutaneous): 78%
patients achieving ACR20 ([6]; subcutaneous, 16 weeks): 85%
median Health Assessment Questionnaire (HAQ) score ([6]; subcutaneous): 0.4
patients achieving an ACR70 response ([6]; subcutaneous): 41%
time to achieve an ACR20 response ([6]; subcutaneous): 4 weeks
ACR20 responders ([6]; subcutaneous): 89%
non-responders with positive ACR20 response after switch ([6]; switched from 15 mg oral to 15 mg subcutaneous): 30%
patients reporting nausea ([7]; after switching to oral): 48%
patients reporting nausea ([7]; switched back to intramuscular): 40%
patients judged to have moderate or marked improvement ([8]; 10 mg to 15 mg intramuscular once a week, 78 rheumatoid arthritis patients): Eighty-two
patients who deteriorated after switch to oral and improved after switching back to intramuscular ([8]; of the 48 patients who switched to oral): 10 patients
Methotrexate in samples collected prior to dosing ([9]; Female, autoinjector, Day 8, attributed to carryover of the instrument, LLOQ=0.2 ng/mL): 3.19 ng/mL
AUC(0-mx) [9, 10]: 2501 ng·mL·h and 3172 ng·mL·h
AUC(0-t) [9, 10]: 2498 ng·mL·h and 3169 ng·mL·h
T½ [9, 10]: 3.91 h and 3.95 h
AUC(0-t) ([9]; Female, Autoinjector, Day 8, individual animals): 3169 ng·h/mL
AUC(0-t) ([9]; Female, Needle/Syringe, Day 1, individual animals): 2669 ng·h/mL and 1831 ng·h/mL
AUC(0-mx) [9, 11]: 2675 ng·mL·h and 1832 ng·mL·h
AUC(0-t) [9, 11]: 2669 ng·mL·h and 1831 ng·mL·h
Tmax [9, 11]: 0.50 h
T½ [9, 11]: 4.90 h and 2.53 h
AUC(0-mx) [9, 12]: 1903 ng·mL·h and 1407 ng·mL·h
AUC(0-t) [9, 12]: 1901 ng·mL·h and 1405 ng·mL·h
T½ [9, 12]: 2.00 h and 1.81 h
AUC(0-t) ([9]; Male, Autoinjector, Day 1, individual animals): 1405 ng·h/mL and 1162 ng·h/mL
AUC(0-t) ([9]; Male, Needle/Syringe, Day 8, individual animals): 2016 ng·h/mL and 1324 ng·h/mL
AUC(0-t) [9, 13]: 2464 ng·mL·h and 2016 ng·mL·h
Tmax [9, 13]: 0.50 h
difference in exposure / PK parameters between males and females ([9]; SC 12.5 mg, both devices): no marked difference; also recorded: no marked sex-related differences
exposure with autoinjector compared with needle/syringe ([9]; SC 12.5 mg, male and female minipigs): very similar; also recorded: comparable
time at which maximal plasma concentrations were generally observed ([9]; both devices, SC 12.5 mg, first collection time point): 0.25 h
half-life ([9]; both, Gottingen, minipig, plasma, subcutaneous, 12.5 mg, terminal elimination half-life, range over animals and both devices, where it could be estimated): 1.81 to 4.9 h
AUC(0-t) ([9]; female, Gottingen, minipig, plasma, sc, 12.5 mg, AUC(0-t), Female, Autoinjector, Day 8, individual animals): 2500 ng·h/mL
AUC(0-t) ([9]; female, Gottingen, minipig, plasma, sc, 12.5 mg, AUC(0-t), Female, Needle/Syringe, Day 1, individual animals): 2380 ng·h/mL
Tmax ([9]; female, Gottingen, minipig, plasma, sc, […], Tmax, Auto injector, Dose Level 12.5, Median value): 0.25 h
Tmax ([9]; female, Gottingen, minipig, plasma, sc, […], Tmax, Auto injector, Dose Level 12.5, individual animals): 0.25 h
Tmax ([9]; female, Gottingen, minipig, plasma, sc, […], Tmax, Syringe, Dose Level 12.5, Median value): 0.25 h
Tmax ([9]; female, Gottingen, minipig, plasma, sc, […], Tmax, Syringe, Dose Level 12.5, individual animals): 0.25 h
half-life ([9]; female, Gottingen, minipig, plasma, sc, […], T½, Auto injector, Dose Level 12.5, Mean): 3.71 h
half-life ([9]; female, Gottingen, minipig, plasma, sc, […], T½, Auto injector, Dose Level 12.5, individual animals): 3.26 h
half-life ([9]; female, Gottingen, minipig, plasma, sc, […], T½, Syringe, Dose Level 12.5, Mean): 3.39 h
half-life ([9]; female, Gottingen, minipig, plasma, sc, […], T½, Syringe, Dose Level 12.5, individual animals): 2.74 h
AUC(0-t) ([9]; male, Gottingen, minipig, plasma, sc, 12.5 mg, AUC(0-t), Male, Autoinjector, Day 1, individual animals): 1900 ng·h/mL
AUC(0-t) ([9]; male, Gottingen, minipig, plasma, sc, 12.5 mg, AUC(0-t), Male, Needle/Syringe, Day 8, individual animals): 2460 ng·h/mL
concentration at 24 h ([9]; male, Gottingen, minipig, plasma, sc, […], Concentration of Methotrexate in plasma, Males, Autoinjector, 24 h, individual animals, BQL = below quantitation limit 0.200 ng/mL): 0.696 ng/mL
Tmax ([9]; male, Gottingen, minipig, plasma, sc, […], Tmax, Auto injector, Dose Level 12.5, Median value): 0.25 h
Tmax ([9]; male, Gottingen, minipig, plasma, sc, […], Tmax, Auto injector, Dose Level 12.5, individual animals): 0.25 h
Tmax ([9]; male, Gottingen, minipig, plasma, sc, […], Tmax, Syringe, Dose Level 12.5, Median value): 0.25 h
Tmax ([9]; male, Gottingen, minipig, plasma, sc, […], Tmax, Syringe, Dose Level 12.5, individual animals): 0.25 h
half-life ([9]; male, Gottingen, minipig, plasma, sc, […], T½, Auto injector, Dose Level 12.5, Mean): 1.92 h
half-life ([9]; male, Gottingen, minipig, plasma, sc, […], T½, Auto injector, Dose Level 12.5, individual animals): 1.95 h
half-life ([9]; male, Gottingen, minipig, plasma, sc, […], T½, Syringe, Dose Level 12.5, individual animals): 1.91 h
